Where two headings read alike, the source gives them in different places.
Assays:
[1] = molecular target: SARS-CoV2 NSP14/NSP10 exonuclease (Severe acute respiratory syndrome coronavirus 2 (2019-nCoV) (SARS-CoV-2), UniProt P0DTD1); experiment: biochemical; set-up: inhibition of NSP14/NSP10 complex exonuclease activity: dose or concentration left out as unconfirmed; settings: for Inhibitory activity present: class symbols − to +++++, key not given
[2] = system: A549 cells; experiment: AlamarBlue viability assay; settings: A549 human lung cells, 48 hours
[3] = system: A549 cells
[4] = system: HCoV-OC43; experiment: HCoV-OC43 infection of HMC3 cells, combination with remdesivir; type: cell-based; settings: #112: 60 μM, #77: […] μM, #68: 25 μM
[5] = system: SARS-CoV2; type: cell-based; settings: A549-ACE2 cells; #112: 60 μM, #77: […] μM, #68: 25 μM
[6] = molecular target: NSP14/10 complex (Severe acute respiratory syndrome coronavirus 2 (2019-nCoV) (SARS-CoV-2), UniProt P0DTD1); experiment: Gel electrophoresis assay of Oligo B digestion; type: biochemical; settings: for NSP14/NSP10 complex inhibitory potential (gel): concentrations as in FIG. 55
[7] = system: unbound NSP10; experiment: FRET-based activity assay, non-specific background of unbound NSP10; type: biochemical; settings: dose-response, FIG. 11B
[8] = Solubility issue (Table 2)
[9] = Oligo D, linear reaction range, less than 60% of total substrate consumed at readout, read-out: half maximal inhibitory concentration (IC50)
[10] = Table 2, read-out: SARS-CoV2 IC50

Compound `CC(C)=CCOc1ccc(/C=C/C(=O)c2ccc(OCC=C(C)C)cc2OCC(=O)O)cc1` [Sofalcone] has an IC50 [1, 9] of 28.8 µM.
In the case of `CC(C)=CCc1c(O)ccc(C(=O)/C=C/c2ccc(O)cc2O)c1O` [Compound 74, Morachalcone A], the “Toxicity at IC50” value [2] is reported as “Yes”.
For `O=c1oc2ccccc2c(O)c1Cc1c(O)c2ccccc2oc1=O` [Compound 23, Dicoumarol, reference compound], the IC50 [1, 10] was over 500 µM.
With `Oc1ccc(/C=C/c2ccc3cccc(O)c3n2)cc1O` [Compound 92, 2-(3,4-dihydroxystyryl)-8-hydroxyquinoline] the “Toxicity at IC50” value [2] was “Yes”.
For `O=C(O)c1cc(Cc2ccc(O)c(C(=O)O)c2)ccc1O` [Compound 30, 5,5′-Methylenedisalicylic acid], the “Toxicity at IC50” value [2] was “No”.
For `CC(C)=CCc1c2c(c3occ(-c4ccc(O)c(O)c4)c(=O)c3c1O)C=CC(C)(C)O2` [Compound 69, Pomiferin], the “Toxicity at IC50” value [3] was “Yes”.
In the case of `O=c1cc(-c2ccc(O)cc2)oc2cc(O)c(O)c(O)c12` [Compound 62, Scutellarein], the “Toxicity at IC50” value [2] is reported as “no”.
For `COc1cc(O)c(CC=C(C)C)c(O)c1C(=O)/C=C/c1ccc(O)cc1` [Compound 58, Xanthohumol], the “Toxicity at IC50” value [2] was “yes”.
For `O=C(O)c1c(O)c(Cc2ccc(Cl)cc2)nc2c3c(ccc12)CCCC3` [Compound 59, 2-(4-Chlorobenzyl)-3-hydroxy-7,8,9,10-tetrahydrobenzo(H)quinoline-4-carboxylic acid], the “Toxicity at IC50” value [2] was “yes”.
For `O=C(NCc1ccc(F)cc1)C1C(=O)N(O)C(=O)c2cc(C(F)(F)F)ccc21` (stereo not shown) [Compound 112, 7-trifluoromethyl-N-(4-fluorobenzyl)-2-hydroxy-1,3-dioxo-4H-isoquinoline-4-carboxamide], the “lowering of the EC50 values of remdesivir” value (from here on “lowering”) [4] was about 5 fold, the “lowering” value [5] was about 5 fold and the “NSP14/NSP10 complex inhibitory potential (gel)” value [6] was “indeed novel NSP14 inhibitors”.
For `O=C(NCc1ncc[nH]1)c1c(O)cnc2ccccc12` [Compound 31, 3-Hydroxy-N-[(1H-imidazol-2-yl)methyl]quinoline-4-carboxamide], the “Toxicity at IC50” value [2] was “No”.
In the case of `O=C1Cc2ccccc2C(=O)N1O` [Compound 13, 2-Hydroxyisoquinoline-1,3(2H,4H)-dione], the “inhibition of non-specific background of NSP10” value [7] is reported as “did not inhibit the non-specific background of NSP10”, the “inhibition of NSP14/NSP10 complex exonuclease activity” value ([1]; Oligo E (TexasRed-BHQ2)) is reported as “showed inhibition” and the “Toxicity at IC50” value [2] is reported as “Yes”. For the same compound, the “Inhibition of NSP14/10 (Oligo B digestion, gel)” value ([6]; 500 μM versus 100 μM) was “greater at higher (500 μM) versus lower (100 μM) concentrations”.
With `O=C(O)c1cc(/C=C/c2ccc3ccc(C(=O)O)c(O)c3n2)ccc1O` [Compound 90, 2-(3-carboxy-4-hydroxystyryl)-8-hydroxyquinoline-7-carboxylic acid] the “Toxicity at IC50” value [2] was “No”.
In the case of `Cc1ccc2ccc(C(=O)O)c(O)c2n1` [Compound 78, 2-methyl-8-hydroxyquinoline-7-carboxylic acid], the “Toxicity at IC50” value [2] is reported as “No”.
With `O=C(O)c1ccc2ccc(/C=C/c3ccc(F)c(F)c3)nc2c1O` [Compound 89, 2-(3,4-difluorostyryl)-8-hydroxyquinoline-7-carboxylic acid] the “Toxicity at IC50” value [2] was “Yes”.
For `O=C(O)c1ccc2nc(/C=C/c3ccc(O)c(O)c3)ccc2c1O` [Compound 99, 2-(3,4-dihydroxystyryl)-5-hydroxyquinoline-6-carboxylic acid], the “Toxicity at IC50” value [2] was “Yes”.
`O=c1c2[nH]c3ccccc3c2ncn1CCc1ccc(F)cc1` [Compound 105, 3-[2-(4-Fluorophenyl)ethyl]-3,5-dihydro-4H-pyrimido[5,4-b]indol-4-one] showed an IC50 [1, 10] of 217 µM.
For `O=C(O)c1ccc2ccc(CCc3ccc(O)c(O)c3)nc2c1O` [Compound 94, 2-(3,4-dihydroxyphenethyl)-8-hydroxyquinoline-7-carboxylic acid], the “Toxicity at IC50” value [2] was “No”.
With `Oc1ccc(CC2NCCc3cc(O)c(O)cc32)cc1O` (stereo not shown) [Compound 54, Tetrahydropapaveroline] the “Toxicity at IC50” value [2] was “no”, the “NSP14/NSP10 complex inhibitory potential (gel)” value [6] was “indeed novel NSP14 inhibitors” and the Solubility issue [8] was “no”.
For `CC(C)=CCc1cc(C(=O)/C=C/c2ccc(O)cc2)c(O)cc1O` [Compound 57, Bavachalcone], the “Toxicity at IC50” value [2] was “yes”.
In the case of `O=c1oc2ccccc2c(O)c1Cc1c(O)c2ccccc2oc1=O` [Dicoumarol], the IC50 [1, 9] is reported as over 500 µM.
`CC(C)=CCc1c2c(c3occ(-c4ccc(O)c(O)c4)c(=O)c3c1O)C=CC(C)(C)O2` [Pomiferin] gave an IC50 [1, 9] of 5.9 µM.
With `O=C(O)c1ccc2ccc(/C=C/c3ccc(O)c(O)c3)nc2c1O` [Compound 79, 2-(3,4-dihydroxystyryl)-8-hydroxyquinoline-7-carboxylic acid] the “Toxicity at IC50” value [2] was “No”.
In the case of `O=C(/C=C/c1ccc(O)cc1)c1c(O)cc(O)cc1O` [Compound 73, Naringenin chalcone], the “Toxicity at IC50” value [2] is reported as “Yes”.
For `O=C(/C=C/c1ccc(O)c(O)c1)c1ccc(O)c(O)c1O` [Compound 76, Okanin], the “Toxicity at IC50” value [2] was “Yes”.
In the case of `O=C(c1ccc(F)c(F)c1)c1ccc2ccc(/C=C/c3ccc(O)c(O)c3)nc2c1O` [Compound 93, 7-(3,4-difluorobenzoyl)-2-(3,4-dihydroxyvinyl)-8-hydroxyquinoline], the “Toxicity at IC50” value [2] is reported as “Yes”.
For `O=C(O)c1ccc2ccc(/C=C/c3cc(Br)c(O)c(Br)c3)nc2c1O` [Compound 88, 2-(3,5-dibromo-4-hydroxystyryl)-8-hydroxyquinoline-7-carboxylic acid], the “Toxicity at IC50” value [2] was “No”.
For `CC(C)=CCc1c(O)ccc(C(=O)/C=C/c2ccc(O)cc2)c1O` [Compound 77, Isobavachalcone], the “lowering” value [4] was about 5 fold, the IC50 ([1]; read-out: SARS-CoV2 IC50) was 17.4 ± 1.39 µM and the “lowering” value [5] was about 5 fold. For the same compound, the “Toxicity at IC50” value [2] was “some” and the “NSP14/NSP10 complex inhibitory potential (gel)” value [6] was “indeed novel NSP14 inhibitors”.
In the case of `CC(C)=CCc1c(O)cc(O)c(C(=O)/C=C/c2ccc(O)cc2)c1O` [Compound 71, Desmethylxanthohumol], the Inhibitory activity present [1] is reported as “+++/ ++++” and the “Toxicity at IC50” value [2] is reported as “Yes”.
In the case of `O=C(O)c1cc2cc(-c3ccccc3)ccc2[nH]c1=O` [Compound 53, 2-Oxo-6-phenyl-1H-quinoline-3-carboxylic acid], the “Toxicity at IC50” value [2] is reported as “no”.
For `CC(C)=CCOc1ccc(/C=C/C(=O)c2ccc(OCC=C(C)C)cc2OCC(=O)O)cc1` [Compound 68, Sofalcone, reference compound], the “lowering” value [4] was about 5 fold, the IC50 ([1]; read-out: SARS-CoV2 IC50) was 22 ± 6.02 µM and the “lowering” value [5] was about 5 fold. For the same compound, the “NSP14/NSP10 complex inhibitory potential (gel)” value [6] was “indeed novel NSP14 inhibitors” and the “Toxicity at IC50” value [3] was “Some”.
With `O=P(O)(O)c1ccc2ccc(CCc3ccc(O)c(O)c3)nc2c1O` [Compound 100, 2-(3,4-dihydroxyphenethyl)-8-hydroxyquinoline-7-phosphonic acid] the “Toxicity at IC50” value [2] was “No”.
For `COc1ccc2nc(O)c(-c3noc(-c4ccc(F)cc4)n3)cc2c1` [Compound 109, 3-(5-(4-Fluorophenyl)-1,2,4-oxadiazol-3-yl)-6-methoxyquinolin-2-ol], the Solubility issue [8] was “No”.
With `CC(C)c1cc(Cc2cc(C(C)C)cc(C(=O)O)c2O)c(O)c(C(=O)O)c1` [Compound 65, 3-[(3-Carboxy-2-hydroxy-5-propan-2-ylphenyl)methyl]-2-hydroxy-5-propan-2-ylbenzoic acid] the “Toxicity at IC50” value [2] was “no”.
With `CC(C)=CCc1c(O)ccc(C(=O)/C=C/c2ccc(O)cc2)c1O` [Isobavachalcone] the IC50 [1, 9] was 16.6 µM.
For `Cc1c(S(=O)(=O)[O-])oc2c1C(=O)C(=O)c1c-2ccc2c1CCCC2(C)C.[Na+]` [Compound 60, Tanshinone IIA sulfonate], the “Toxicity at IC50” value [2] was “no” and the Solubility issue [8] was “no”.
For `CC(C)=CCc1c(O)ccc(C(=O)/C=C/c2ccc(O)c(O)c2)c1O` [Compound 72, Corylifol B], the Inhibitory activity present [1] was “+++/ ++++”.
In the case of `CC1(C)CCc2c(O)ccc(C(=O)/C=C/c3ccc(O)cc3)c2O1` [Compound 75, Isodorsmanin A], the “Toxicity at IC50” value [2] is reported as “Yes”.
